From ChEMBL document CHEMBL4765407, “Design, synthesis and high antitumor potential of new unsymmetrical bisacridine derivatives towards human solid tumors, specifically pancreatic cancers and their unique ability to stabilize DNA G-quadruplexes” (Eur J Med Chem, 2020)

Tests used:
Quadruplex DNA [1] = assay: Stabilization of 5'-FAM/3'-TAMRA labeled telomeric G4 quadruplex DNA F21T (unknown origin) assessed as change in melting temperature at 10 microM measured after 15 mins by FRET assay; assay type: nucleic-acid assay
MIA PaCa-2 = assay: Cytotoxicity against human MIA PaCa-2 cells assessed as reduction in cell viability measured after 72 hrs by SRB assay; assay type: functional, cell-based; settings: MIA PaCa-2, 72 h
Quadruplex DNA [2] = assay: Stabilization of 5'-FAM/3'-TAMRA labeled K-Ras G4 quadruplex DNA (unknown origin) assessed as change in melting temperature at 10 microM measured after 15 mins by FRET assay; assay type: nucleic-acid assay
DU-145 = assay: Cytotoxicity against human DU-145 cells assessed as reduction in cell viability measured after 72 hrs by SRB assay; assay type: functional, cell-based; settings: DU-145, 72 h
[3] = Toxicity in BALB/c mouse assessed as macroscopic anatomopathological changes at total dose of 120 mg/kg, iv administered as 3 times per week for 2 weeks measured for 65 days; assay type: organism-based; settings: in vivo, 1560 h, time 65 day
HCT-116 = assay: Cytotoxicity against human HCT-116 cells assessed as reduction in cell viability measured after 72 hrs by SRB assay; assay type: functional, cell-based; settings: HCT-116, 72 h
PANC-1 [4] = assay: Antitumour activity against human PANC-1 cells xenografted in Crl:Nu-Foxnl nu mouse assessed as inhibition of tumour growth at total effective dose of 160 mg/kg, iv measured on day 40; assay type: functional; settings: PANC-1, iv, 960 h, time 40 day, read-out: TGI
Quadruplex DNA [5] = assay: Stabilization of 5'-FAM/3'-TAMRA labeled c-Myc promoter G4 quadruplex DNA FPu18 (unknown origin) assessed as change in melting temperature at 10 microM measured after 15 mins by FRET assay; assay type: nucleic-acid assay
ASPC1 = assay: Cytotoxicity against human ASPC1 cells assessed as reduction in cell viability measured after 72 hrs by SRB assay; assay type: functional, cell-based; settings: ASPC1, 72 h
[6] = Stabilization of ds 5'-FAM-d(TATAGCTATA-HEG-TATAGCTATA)-TAMRA-3' (unknown origin) assessed as change in melting temperature at 10 microM measured after 15 mins by FRET assay; settings: Homo sapiens
BXPC-3 [7] = assay: Antitumour activity against human BXPC-3 cells xenografted in Crl:Nu-Foxnl nu mouse assessed as inhibition of tumour growth at total effective dose of 160 mg/kg, iv measured on day 29; assay type: functional; settings: BXPC-3, iv, 696 h, time 29 day, read-out: TGI
PANC-1 [8] = assay: Cytotoxicity against human PANC-1 cells assessed as reduction in cell viability measured after 72 hrs by SRB assay; assay type: functional, cell-based; settings: PANC-1, 72 h
BXPC-3 [9] = assay: Cytotoxicity against human BXPC-3 cells assessed as reduction in cell viability measured after 72 hrs by SRB assay; assay type: functional, cell-based; settings: BXPC-3, 72 h
[10] = Toxicity in BALB/c mouse assessed as effect on body weight at total dose of 120 mg/kg, iv administered as 3 times per week for 2 weeks measured for 65 days; assay type: organism-based; settings: in vivo, 1560 h, time 65 day

- ΔTm (Quadruplex DNA [1]): 19.2 °C
- ΔTm (Quadruplex DNA [2]): 19.9 °C
- ΔTm (Quadruplex DNA [5]): 27 °C
- ΔTm [6]: 3.6 °C
Structure (SMILES): Cc1cc(C(N)CCN2CCN(CCCNc3ccc4ncn5c6ccccc6c(=O)c3c45)CC2)c([N+](=O)[O-])c2cc3ccccc3nc12 (centres undefined)
- IC50 (MIA PaCa-2): 58 nM
- IC50 (DU-145): 62 nM
- Activity [3]: Non-Toxic
- IC50 (HCT-116): 45 nM
- inhibition in vivo at 160 mg/kg (PANC-1 [4]): 64%
- IC50 (ASPC1): 240 nM
- inhibition in vivo at 160 mg/kg (BXPC-3 [7]): 40%
- IC50 (PANC-1 [8]): 65 nM
- IC50 (BXPC-3 [9]): 351 nM
- Activity [10]: Non-Toxic
